The values below come from ChEMBL document CHEMBL5052840, “Pharmaceutical compounds and therapeutic methods” (2020).

Holding throughout (type): ADME, organism-based
Series [1] can be described thus: Plasma concentration in male C57BL/6 mouse at 10 mg/kg, po administered as single dose measured at 0.08 hrs measured by LC/MS-MS analysis.
Series [2] can be described thus: Plasma concentration in male C57BL/6 mouse at 10 mg/kg, po administered as single dose measured at 0.35 hrs measured by LC/MS-MS analysis.
Series [3] can be described thus: Brain concentration in male C57BL/6 mouse at 10 mg/kg, ip administered as single dose measured at 0.08 hrs measured by LC/MS-MS analysis. The following applies: read-out: Drug uptake.
Series [4] in a line: Brain concentration in male C57BL/6 mouse at 10 mg/kg, ip administered as single dose measured at 0.35 hrs measured by LC/MS-MS analysis. To be noted: read-out: Drug uptake.
The nature of series [5]: Brain concentration in male C57BL/6 mouse at 10 mg/kg, ip administered as single dose measured at 3 hrs measured by LC/MS-MS analysis. To be noted: read-out: Drug uptake.
A short description of series [6]: Ratio of drug level in male C57BL/6 mouse brain to plasma at 10 mg/kg, ip administered as single dose measured at 1 hr measured by LC/MS-MS analysis. The following applies: read-out: BPR.
A short description of series [7]: Ratio of drug level in male C57BL/6 mouse brain to plasma at 10 mg/kg, po administered as single dose measured at 1 hr measured by LC/MS-MS analysis. To be noted: read-out: BPR.
The nature of series [8]: Ratio of drug level in male C57BL/6 mouse brain to plasma at 10 mg/kg, po administered as single dose measured at 3 hrs measured by LC/MS-MS analysis. To be noted: read-out: BPR.
Series [9] can be described thus: Brain concentration in male C57BL/6 mouse at 10 mg/kg, iv administered as single dose measured at 3 hrs measured by LC/MS-MS analysis. The following applies: read-out: Drug uptake.
Series [10] can be described thus: Brain concentration in male C57BL/6 mouse at 10 mg/kg, iv administered as single dose measured at 6 hrs measured by LC/MS-MS analysis. To be noted: read-out: Drug uptake.
Series [11] in a line: Ratio of drug level in male C57BL/6 mouse brain to plasma at 10 mg/kg, iv administered as single dose measured at 0.08 hrs measured by LC/MS-MS analysis. To be noted: read-out: BPR.
A short description of series [12]: Ratio of drug level in male C57BL/6 mouse brain to plasma at 10 mg/kg, iv administered as single dose measured at 1 hr measured by LC/MS-MS analysis. The following applies: read-out: BPR.

`Cc1nc2ccccn2c1-c1csc(Nc2ccc3c(c2)OC(F)(F)O3)n1.Cl`: the concentration at 0.08 h in series [1] was 175 ng/mL; in series [3], 558 ng/g. In addition, the concentration at 0.35 h in series [2] was 138 ng/mL; in series [4] it was 680 ng/g. For the same molecule, the concentration at 3 h was determined as 558 ng/g in series [5] and 9.01 ng/g in series [9]. Further, the values for the Kp at 1 h in series [6], in series [7] and in series [12] were 2.78, 2.01 and 1.67, respectively. In addition, the Kp at 3 h in [8] was determined as 4.34. Moreover, the concentration at 6 h in series [10] amounted to 5.13 ng/g. Besides, the Kp at 0.08 h in [11] came to 1.07.
